Structures can show the parent of a compound that is named as a salt.
Experiments:
[1] = storage stability of the solid amorphous form (XRD); type: physicochemical
Source text: Solid amorphous Carvedilol dihydrogen phosphate is provided herein.

[2] = moisture uptake on exposure to air; type: physicochemical

stability on storage ([1]; stored under controlled humidity conditions, no conversion to a crystalline form): stable
stability profile compared to the existing crystalline forms ([1]; versus existing crystalline forms): superior stability profile
XRD pattern after moisture uptake ([2]; after picking up moisture up to 7%): remains identical
moisture picked up when exposed to air ([2]; material of low moisture content exposed to air, forming higher hydrates): up to 7%
Structure (SMILES): COc1ccccc1OCCNCC(O)COc1cccc2[nH]c3ccccc3c12 (stereo not shown) [1-(9H-carbazol-4-yloxy)-3-[[2-(2-methoxyphenoxy)ethyl]amino]-2-propanol phosphate salt]

— patent US20100076047A1, “Amorphous 1-(9H-carbazol-4-yloxy)-3-[[2-(2-methoxyphenoxy)ethyl]amino]-2-propanol phosphate salt” (priority 2007, published 2010)
